According to patent US11492347B2 (ENYO PHARMA, priority 2018, dated 2022):

Legend:
[1] = tested on: H1N1 (influenza A/New Caledonia/20/99); assay: microbe, parasite or virus in culture; type: cell-based; conditions: H1N1, A549, 48 h
NFκB = NFκB reporter assay, TNFα stimulation of A549 NFκB-NanoLuciferase reporter cells; type: cell-based; conditions: Homo sapiens, 4 ng/ml TNFα, NanoGlo luciferase assay 6 hours later
Excerpt: Compounds of the present invention have been tested for their capacity to inhibit NFκB.
The NFκB reporter construct was made by cloning 5 NFκB responsive elements upstream of a NanoLuciferase reporter gene flanked by AAVS1 genomic sequences.
NFκB Responsive element fused with NanoLuciferase and SV40 late Poly(A) signal was amplified from pNL3.2-NFκB-Nluc (Promega) using NFKB-NLUC-F and NFKB-NLUC-R primers and inserted by Infusion (TaKaRa) in AAVS1 SA-2A-puro-pA donor plasmid (Hockemeyer et al, Nat Biotechnol. 2009, 27, 851-7) digested by Sal1. pCRISPR AAVS1-T2 expressing a guide RNA (gRNA) to target human AAVS1 (T2 target sequence) was constructed by inserting AAVS1-T2A hybridized primers in pLentiCRISPR v2-blast (Sanjana et al, Nat Methods. 2014, 11, 783-4) digested by Bsmbl.
A549 cells were transfected by the plasmids and puromycine selected for 5 days (1 μg mL-1). Then clones were obtained by limiting dilution and selected to maximize TNF dependent NFκB-NanoLuciferase induction.
The reporter cells were seeded on a 96-well plate for overnight with DMEM including 10% FBS. Test compounds were added at varying concentrations. The cells then were treated with 4 ng/ml TNFα (Peprotech, ref E251) in DMEM+10% FBS. NanoGlo luciferase assay (Promega) was carried out 6 hours later. Luminescence was measured using a Spark 20M spectrofluorimeter (Tecan). Values were normalized to the luminescence measured in untreated cells.

[2] = target: T1, CISD3 Gene Product (Miner2) (Homo sapiens, UniProt P0C7P0); assay: Stability of Fe-S cluster binding of purified NEET protein (absorbance 458 nm); type: biochemical; conditions: for Residual cluster bound at end of experiment (Percentage Absorbance 458 nm at time zero): CISD3 gene product 20 μM, pH 6, at 180 minutes, vehicle control 11%; for Residual cluster bound at end of experiment (Percentage Absorbance 458 nm at time zero) / Time (in minutes) to achieve 50% loss of bound cluster (Absorbance 458 nm): compound 60 μM; for Time (in minutes) to achieve 50% loss of bound cluster (Absorbance 458 nm): Miner2 20 μM, pH 6, 37° C., run time 180 minutes, vehicle control 60; for Stabiliser or destabiliser of Fe-S cluster binding by CISD3 Gene Product (Miner2): time to 50% cluster loss changed by more than 25% compared to the Control sample, at the concentrations tested
T1 sequence (P0C7P0 15-127): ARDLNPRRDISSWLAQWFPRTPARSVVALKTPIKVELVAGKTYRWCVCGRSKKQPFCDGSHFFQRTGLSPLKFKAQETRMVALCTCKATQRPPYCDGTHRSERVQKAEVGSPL
Method: (§1) The modulator effect on the NEET proteins encoded by human CISD1, CISD2, and CISD3 genes by the compounds of the invention has been tested and is reported below. Particularly, the biochemical function of the NEET proteins is measured by the stability of Fe—S cluster binding of the purified NEET proteins.
(§2) The Fe—S cluster binding capacity of NEET proteins is known to be coordinated by four amino-acids in a stretch of 16 (three Cysteine and one Histidine). As the lability of the Fe—S cluster of NEET proteins is sensitive to the environment, cluster stability measurements are one of the measures of interactions of NEET proteins with small molecules and compounds. NEET protein/2Fe-2S cluster stability can be assessed by monitoring the decay in absorbance of its characteristic 458-nm peak (characteristic of the oxidized 2Fe-2S cluster) over time. Each NEET protein (mitoNEET, NAF-1 and Miner 2) was tested for its Fe—S binding in the absence or presence of a compound according to the invention (see table 4 below). The rate of cluster release (time in minutes to achieve 50% loss of bound Fe—S cluster) was compared for each NEET protein in the presence of one of the compounds of the invention (in a 1:3 protein:compound molar ratio) relative to each protein alone.
(§3) At pH 6, all the three NEET proteins (mitoNEET, NAF-1 and Miner 2) have a characteristic rate of loss of the bound Fe—S cluster that can be measured by the decrease of absorbance at wavelength 458 nm over time, using a spectrophotometer. Thus, Bis-Tris buffer (100 mM Bis-Tris pH6, 100 mM Nacl) was used at pH 6 to dilute either DMSO (Blank sample: Bis-Tris Buffer pH 6, 66 μM DMSO), DMSO and one of the three NEET proteins (Control sample: Bis-Tris Buffer pH 6, 66 μM DMSO, 20 μM purified NEET protein) or DMSO, one of the three NEET proteins and a compound of the invention (Test sample: Bis-Tris Buffer pH 6, 66 μM DMSO, 20 μM purified NEET protein, 60 μM compound of the invention).
(§4) A reaction mix containing DMSO diluted in the Bis-Tris Buffer with or without a compound of the invention was prepared. The purified NEET protein was the last component added to the reaction mix which was then aliquoted into 4 replicates in 96 wells plates. The absorbance at wavelength 458 nm was taken at 5 minutes intervals at 37° C. with a spectrofluorimeter. The assay run time for CISD2 gene product (NAF-1) was 500 minutes and 180 minutes for both the CISD1gene product (mitoNEET) and the CISD3 gene product (Miner2).
(§5) In addition to time monitoring, residual bound Fe—S cluster to NEET protein was measured at the final point of the spectrometry assay for each Test sample and compared to the Control sample data (in parenthesis table 4). This residual binding is measured by the differential percentage between the absorbance 458 nm at time zero and the absorbance 458 nm at the end of the experiment (i.e. respectively 500 or 180 minutes as described here above), showing the percentage of NEET protein still able to bind a Fe—S cluster.
(§6) Analysis of the absorbance enables the time for which 50% loss of bound Fe—S cluster is reached (i.e. a 50% absorbance decrease at 458 nm) for each Test sample and each Control sample (in parenthesis table 4) to be determined. The data are then compared to determine whether the compound of the invention stabilizes or destabilizes the NEET protein/Fe—S cluster binding.

[3] = target: T2, CISD1 Gene Product (mitoNEET) (Homo sapiens, UniProt Q9NZ45); assay: as above; type: biochemical; conditions: for Time (in minutes) to achieve 50% loss of bound cluster (Absorbance 458 nm) / Residual cluster bound at end of experiment (Percentage Absorbance 458 nm at time zero): mitoNEET 20 μM, compound 60 μM; for Time (in minutes) to achieve 50% loss of bound cluster (Absorbance 458 nm): pH 6, 37° C., run time 180 minutes, vehicle control 80; for Residual cluster bound at end of experiment (Percentage Absorbance 458 nm at time zero): pH 6, at 180 minutes, vehicle control 16%; for Stabiliser or destabiliser of Fe-S cluster binding by CISD1 Gene Product (mitoNEET): time to 50% cluster loss changed by more than 25% compared to the Control sample, at the concentrations tested
T2 sequence (Q9NZ45 33-108 limits assumed): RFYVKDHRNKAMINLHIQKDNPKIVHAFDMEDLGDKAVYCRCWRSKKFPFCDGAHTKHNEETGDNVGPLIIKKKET
Method: as §1, §2, §3, §4, §5, §6

[4] = target: T3, CISD2 Gene Product (NAF-1) (Homo sapiens, UniProt Q8N5K1); assay: as above; type: biochemical; conditions: for Time (in minutes) to achieve 50% loss of bound cluster (Absorbance 458 nm) / Residual cluster bound at end of experiment (Percentage Absorbance 458 nm at time zero): NAF-1 20 μM, compound 60 μM; for Time (in minutes) to achieve 50% loss of bound cluster (Absorbance 458 nm): pH 6, 37° C., run time 500 minutes, vehicle control 310 or 210; for Residual cluster bound at end of experiment (Percentage Absorbance 458 nm at time zero): pH 6, at 500 minutes, vehicle control 3%; for Stabiliser or destabiliser of Fe-S cluster binding by CISD2 Gene Product (NAF-1): time to 50% cluster loss changed by more than 25% compared to the Control sample, at the concentrations tested
T3 sequence (Q8N5K1 57-135 limits assumed): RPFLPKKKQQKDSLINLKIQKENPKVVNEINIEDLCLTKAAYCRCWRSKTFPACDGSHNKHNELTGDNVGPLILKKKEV
Method: as §1, §2, §3, §4, §5, §6

Row | SMILES | IC50 [1] [nM] | EC50 (NFκB) [nM] | Residual cluster bound at end of experiment (Percentage Absorbance 458 nm at time zero) [2] | Time (in minutes) to achieve 50% loss of bound cluster (Absorbance 458 nm) [2] | Stabiliser or destabiliser of Fe-S cluster binding by CISD3 Gene Product (Miner2) [2] | Time (in minutes) to achieve 50% loss of bound cluster (Absorbance 458 nm) [3] | Residual cluster bound at end of experiment (Percentage Absorbance 458 nm at time zero) [3] | Time (in minutes) to achieve 50% loss of bound cluster (Absorbance 458 nm) [4] | Residual cluster bound at end of experiment (Percentage Absorbance 458 nm at time zero) [4] | Stabiliser or destabiliser of Fe-S cluster binding by CISD1 Gene Product (mitoNEET) [3] | Stabiliser or destabiliser of Fe-S cluster binding by CISD2 Gene Product (NAF-1) [4]
1 | CC1(C)CCc2sc(NC(=O)c3ccc(NCC4CCOCC4)cc3)c(C(=O)O)c2C1 [#164, 5,5-Dimethyl-2-[[4-(tetrahydropyran-4-ylmethylamino)benzoyl]amino]-6,7-dihydro-4H-benzothiophene-3-carboxylic acid] | 16 | 90 |  |  |  |  |  |  |  |  | 
2 | CC1(C)CCc2c(sc(NC(=O)c3ccccc3)c2C(=O)O)C1 [Compound #15, 2-Benzamido-6,6-dimethyl-5,7-dihydro-4H-benzothiophene-3-carboxylic acid] | 60 | 150 |  |  |  |  |  |  |  |  | 
3 | COc1ccc(C(=O)Nc2sc3c(c2C(=O)O)CCC(C)(C)C3)c(F)c1 [Compound #16, 2-[(2-Fluoro-4-methoxybenzoyl)amino]-6,6-dimethyl-5,7-dihydro-4H-benzothiophene-3-carboxylic acid] | 43.8 | 150 |  |  |  |  |  |  |  |  | 
4 | COc1ccc(C(=O)Nc2sc3c(c2C(=O)O)CCC(C)(C)C3)cc1 [Compound #20, 2-[(4-Methoxybenzoyl)amino]-6,6-dimethyl-5,7-dihydro-4H-benzothiophene-3-carboxylic acid] | 74 |  | 9% (11%) | 35 (60) minutes | Destabilisers | 65 (80) minutes | 0% (16%) | 300 (310) minutes | 4% (3%) |  | 
5 | CC1(C)Cc2c(sc(NC(=O)c3ccccc3)c2C(=O)O)C(C)(C)C1 [Compound #33, 2-Benzamido-5,5,7,7-tetramethyl-4,6-dihydrobenzothiophene-3-carboxylic acid] | 34.6 | 400 |  |  |  |  |  |  |  |  | 
6 | CN(c1ccc(C(=O)Nc2sc3c(c2C(=O)O)CC(C)(C)CC3(C)C)cc1)C1CCOCC1 [Compound #135, 5,5,7,7-Tetramethyl-2-[[4-[methyl(tetrahydropyran-4-yl)amino]benzoyl]amino]-4,6-dihydrobenzothiophene-3-carboxylic acid] | 6.1 |  | 20% (11%) | 80 min | Stabilisers | 100 (80) minutes | 24% (16%) | 160 (310) minutes | 16% (3%) | stabilisers | destabilisers
7 | CC1CC(C)(C)Cc2sc(NC(=O)c3ccc(NC4CCOCC4)cc3)c(C(=O)O)c21 (centres unmarked) [Compound #136, 4,6,6-Trimethyl-2-[[4-(tetrahydropyran-4-ylamino)benzoyl]amino]-5,7-dihydro-4H-benzothiophene-3-carboxylic acid] | 12 |  | 10% (11%) | 45 (60) minutes | Destabilisers | 75 (80) minutes | 2% (16%) | 325 (310) minutes | 5% (3%) |  | 
8 | CC1(C)Cc2c(sc(NC(=O)c3ccc(Br)cc3)c2C(=O)O)C(C)(C)C1 [Compound #138, 2-[(4-Bromobenzoyl)amino]-5,5,7,7-tetramethyl-4,6-dihydrobenzothiophene-3-carboxylic acid] | 8.8 |  | 66% (11%) |  | Stabilisers |  | 53% (16%) | 435 (210) minutes | 30% (3%) | stabilisers | Stabilisers
9 | COC1CN(c2ccc(C(=O)Nc3sc4c(c3C(=O)O)CCC(C)(C)C4)cc2)C1 [Compound #147, 2-[[4-(3-Methoxyazetidin-1-yl)benzoyl]amino]-6,6-dimethyl-5,7-dihydro-4H-benzothiophene-3-carboxylic acid] | 11.1 |  | 10% (11%) | 60 (60) minutes |  | 75 (80) minutes | 11% (16%) | 85 (310) minutes | 5% (3%) |  | destabilisers
